In this assay the target is T1, MDM4 (Homo sapiens, UniProt O15151+Q00987).
T1 construct: RING domain (MDM2-MDM4 RING heterodimer, pETDuet, E. coli); with MDM2 (RING domain)
Description: microscale thermophoresis on preformed, dye-labelled MDM2-MDM4 RING heterodimer. In kind it is binding.

T1 sequence (O15151 416-490 limits assumed): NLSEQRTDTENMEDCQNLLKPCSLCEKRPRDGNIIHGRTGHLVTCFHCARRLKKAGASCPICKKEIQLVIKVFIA
T1 sequence (Q00987 430-491 limits assumed): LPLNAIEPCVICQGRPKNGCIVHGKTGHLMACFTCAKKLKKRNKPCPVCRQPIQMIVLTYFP

As usually defined, the Kd is the concentration at which binding is half-saturated. `Oc1c(C(Nc2ccccn2)c2cccc(Cl)c2Cl)ccc2cccnc12` (racemic) [MMRi62]: the Kd is roughly 140 nM.
For `O=C(O)c1ccc(C(Nc2ccccn2)c2cc(Cl)c3cccnc3c2O)cc1` (racemic) [MMRi67], the Kd was roughly 896 nM.

(Values after publication PMC9389462, “Small molecule MMRi62 targets MDM4 for degradation and induces leukemic cell apoptosis regardless of p53 status” (Frontiers in Oncology, 2022).)
